In patent US9518081B2, “Peptide libraries” (BICYCLE THERAPEUTICS LIMITED, priority 2009, dated 2016):
*1 amine or outer side, *2 acyl side, *3 side chain or, on linkers, in order; H or OH if unused. Where a SMILES comes first, the peptide text is derived from it. Bridges are numbered along the chain shown (N, C = ends). TBMB = c1c(C[*:1])cc(C[*:3])cc1C[*:2]

Test system: chymotrypsin
Test: Phage ELISA after DTT reduction and chymotrypsin treatment (resistance to proteolysis)
Type: in vitro ADME
Details: 5 mM DTT 20 min, chymotrypsin 50 ug/ml 2 min
Experimental: 0.6 μg/mL of biotinylated MDM2 peptide (res 2-125) was immobilized on a streptavidin-coated plate (Roche). Plate was blocked with PBSM (but 4% in milk powder) and linear or TBMB-conjugated phage (10^7 TU/well in PBSM in the presence or absence of 5 mM DTT) was incubated on the plate for 50 min at room temperature. Similarly, phage was first reduced in 5 mM DTT for 20 min, treated with chymotrypsin (50 ug/ml in PBS) for 2 min, mixed with PBSM (final concentration) and incubated on the plate for 50 min at room temperature. Phage was detected using an anti-M13-HRP monoclonal antibody (1:5000, Amersham).
Note that 5 mM DTT can reduce the disulphide bonds of chymotrypsin leading to its inactivation as a protease. […] In other experiments we have used up to 0.2 mM-5 mM TCEP in the presence of chymotrypsin (0.1 mg/ml-1 mg/ml) for 2 minutes at room temperature in PBS. These conditions also allowed us to distinguish between the linear and cyclic peptides on phage.

Compound	resistance of MDM2 binding to proteolysis
CC(C)C[C@@H]1NC(=O)[C@H](CCC(=O)O)NC(=O)[C@@H](NC(=O)[C@@H](N)CO)CSCc2cc3cc(c2)CSC[C@H](NC(=O)[C@H](CCCCN)NC(=O)[C@@H]2CCCN2C(=O)[C@H](CC(N)=O)NC(=O)[C@H](Cc2c[nH]c4ccccc24)NC1=O)C(=O)N[C@@H](CCCNC(=N)N)C(=O)N[C@@H](CC(C)C)C(=O)N[C@@H](CO)C(=O)N1CCC[C@H]1C(=O)N[C@@H](Cc1ccccc1)C(=O)N[C@@H](CCC(=O)O)C(=O)N[C@H](C(=O)N[C@@H](CCCCN)C(=O)NCC(=O)O)CSC3 [PEP10] (H-SCELWNPKCRLSPFECKG-OH; linker 2-9-16 via TBMB (inferred))	resistant to proteolysis
CC(C)[C@@H]1NC(=O)[C@@H](NC(=O)[C@@H](N)CO)CSCc2cc3cc(c2)CSC[C@H](NC(=O)[C@H]([C@@H](C)O)NC(=O)[C@H](Cc2c[nH]c4ccccc24)NC(=O)CNC(=O)[C@H](Cc2ccccc2)NC(=O)[C@H](CCCNC(=N)N)NC1=O)C(=O)N[C@@H](CC(=O)O)C(=O)N[C@@H](CC(N)=O)C(=O)N[C@@H](CO)C(=O)N[C@@H](Cc1c[nH]c2ccccc12)C(=O)N[C@@H](Cc1c[nH]cn1)C(=O)NCC(=O)N[C@H](C(=O)N[C@@H](CCCCN)C(=O)NCC(=O)O)CSC3 [PEP48] (H-SCVRFGWTCDNSWHGCKG-OH; linker 2-9-16 via TBMB (inferred))	resistant to proteolysis
